Patent publication US20150225377A1, “VEGFR3 INHIBITORS” (CANCER THERAPEUTICS CRC PTY LIMITED, priority 2012, published 2015)

What was measured:
[1] = target: T1, VEGFR3 cytoplasmic domain (Homo sapiens, UniProt P35916); assay: VEGFR3 biochemical assay (AlphaScreen); conditions: GST-VEGFR3 cytoplasmic domain, 500 μM ATP (modified form: His-fusion, 1 μM ATP)
T1 construct: VEGFR3 cytoplasmic domain (amino acids 798-1298) was purchased as N-terminal GST-fusion protein; GST (N); purchased
Experimental: Compounds of the invention may be tested for in vitro activity in the following assay: A biotin labelled peptide is used as substrate (amino acid sequence: Biotin-[…]NH2). VEGFR3 cytoplasmic domain (amino acids 798-1298) was purchased as N-terminal GST-fusion protein (“the enzyme”). The 15 μL assay reactions are run in Greiner brand white 384-well low volume plates. All reactions contained 10 mM HEPES pH 7.4, 10 mM MgCl2, 0.01% (v/v) Tween-20, 50 μM Na3VO4, 0.01% (w/v) albumin from chicken egg white, 1 mM Dithiothreitol, 111 nM peptide substrate, 500 μM ATP, and 3.8 ng/reaction enzyme, with the enzyme being omitted from negative control reactions. Compounds were added in a volume of […] from dilution series prepared in DMSO, positive and negative control reactions receiving the same volume DMSO without compound. The plates were sealed with adhesive seals and incubated for 90 minutes at 30 degree Celsius. The reactions were stopped with the detection reagents added at the same time as follows: Product formation was quantified as amplified luminescence between PerkinElmer AlphaScreen™ beads, using Streptavidin-coated donor and anti-phosphotyrosine (P-Tyr-100) acceptor beads. To each reaction, 5 μL containing 10 mM HEPES pH 7.4, 25 mM NaCl, 100 mM EDTA, 0.01% (v/v) Tween-20, and 6.25 μg/mL of each bead type were added. Plates were incubated for 6 hours before being read on a PerkinElmer EnVision™ plate reader in HTS Alphascreen™ mode. IC50 values were obtained by calculating percent inhibition (% I) for each reaction relative to controls on the same plate (% I=(I-CN)/(CP-CN) where CN/CP are the averages of the negative/positive reactions, respectively), then fitting the % I data vs. compound concentration [I] to % I=(A+((B−A)/(1+((C/[I])̂D)))) where A is the lower asymptote, B is the upper asymptote, C is the IC50 value, and D is the slope factor.
The above assay was also run in a modified form in some cases (indicated below with *). In these cases, VEGFR3 cytoplasmic domain (amino acids 818-1177, lacking 949-1002 of UniProt accession number P35916) was expressed and purified as N-terminal Hexa-His-fusion protein (“the enzyme”), rather than using the N-terminal GST-fusion protein. The assay conditions were the same as above but with 1 μM ATP and 8 ng/reaction of the enzyme.

VEGFR3 = target: T2, VEGFR3 (Homo sapiens, UniProt P35916); assay: VEGFR3 Phospho ELISA assay in HMVEC-dLyAD cells, VEGFC stimulated; type: cell-based; conditions: 1 hour compound, 250 ng/mL VEGFC 10 minutes
T2 construct: host or cells: HMVEC-dLyAD
T2 sequence (P35916 25-1363): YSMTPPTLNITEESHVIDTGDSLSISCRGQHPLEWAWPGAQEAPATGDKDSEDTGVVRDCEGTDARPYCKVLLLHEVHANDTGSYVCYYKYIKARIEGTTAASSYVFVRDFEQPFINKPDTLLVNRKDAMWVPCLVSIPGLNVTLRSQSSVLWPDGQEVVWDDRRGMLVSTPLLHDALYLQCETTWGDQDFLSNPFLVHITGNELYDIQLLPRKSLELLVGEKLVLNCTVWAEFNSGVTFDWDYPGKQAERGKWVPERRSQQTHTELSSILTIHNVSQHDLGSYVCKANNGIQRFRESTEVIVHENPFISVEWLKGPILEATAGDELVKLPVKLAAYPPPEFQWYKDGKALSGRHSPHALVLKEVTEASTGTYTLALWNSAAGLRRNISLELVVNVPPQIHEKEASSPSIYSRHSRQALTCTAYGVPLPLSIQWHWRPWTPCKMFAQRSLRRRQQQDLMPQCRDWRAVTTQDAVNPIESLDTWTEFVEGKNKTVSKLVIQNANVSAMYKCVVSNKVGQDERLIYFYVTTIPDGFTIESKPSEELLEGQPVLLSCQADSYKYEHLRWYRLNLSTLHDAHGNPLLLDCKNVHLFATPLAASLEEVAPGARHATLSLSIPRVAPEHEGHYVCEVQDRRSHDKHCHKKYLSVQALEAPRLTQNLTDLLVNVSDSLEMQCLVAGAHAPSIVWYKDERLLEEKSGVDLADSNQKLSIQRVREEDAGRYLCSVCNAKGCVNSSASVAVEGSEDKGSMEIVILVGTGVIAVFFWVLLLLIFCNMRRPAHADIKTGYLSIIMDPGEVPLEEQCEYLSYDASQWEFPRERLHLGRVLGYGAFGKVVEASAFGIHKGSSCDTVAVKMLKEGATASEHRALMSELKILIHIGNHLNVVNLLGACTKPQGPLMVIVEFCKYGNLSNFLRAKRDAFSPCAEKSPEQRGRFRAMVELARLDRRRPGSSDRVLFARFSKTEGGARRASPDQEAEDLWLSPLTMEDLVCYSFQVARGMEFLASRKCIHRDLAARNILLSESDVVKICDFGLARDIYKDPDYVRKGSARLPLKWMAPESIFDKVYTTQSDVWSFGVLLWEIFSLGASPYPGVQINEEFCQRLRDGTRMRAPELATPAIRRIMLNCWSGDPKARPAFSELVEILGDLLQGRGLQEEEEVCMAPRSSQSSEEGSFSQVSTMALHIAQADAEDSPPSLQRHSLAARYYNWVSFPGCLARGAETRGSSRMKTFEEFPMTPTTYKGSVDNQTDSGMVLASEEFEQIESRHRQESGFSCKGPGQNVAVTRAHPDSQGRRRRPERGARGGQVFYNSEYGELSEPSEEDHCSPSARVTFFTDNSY
Experimental: Adult human dermal lymphatic microvascular endothelial cells (HMVEC-dLyAD) (Cat#CC-2810, Lonza) were seeded into clear-bottom, TC treated 12 well plates (Cat #665180, Greiner Bio-One) in EGM-2MV (Cat#CC-3202, Lonza) at 180,000 cells/well (volume 1 mL), and the plates incubated at 37° C. and 5% CO2 for 6 hours. The media was replaced with EBM-2 (Cat #CC-3156, Lonza)+0.1% BSA (Cat#A8412, Sigma) and cells incubated for a further period (overnight at 37° C. and 5% CO2).
96 well Maxisorp immuno plates (Cat #439454, Nunc) were coated with 100 μL of Total VEGFR3 capture antibody (Part #841888, Human Total VEGFR3/FLT4 ELISA Kit, Cat #DYC3491, R&D Systems), or Phospho VEGFR3 Capture antibody (Part #841885, Human Phospho VEGFR3/FLT4 ELISA Kit, Cat#DYC2724, R&D Systems). The plates were covered and incubated at room temperature overnight.
The coating antibody was flicked out and the plates washed three times with Wash Buffer (Phosphate buffered saline (137 mM NaCl, […], […], […], pH 7.2-7.4), 0.05% Tween 20). 300 μL of blocking buffer (5% v/v Tween 20, 5% w/v sucrose in PBS) was then added to wells and plate incubated for 2 hours at room temperature. Blocking solution is flicked out and plates washed three times and tapped dry.
Compound dilution series were prepared in EBM-2 (Cat #CC-3156, Lonza)+0.1% BSA (Cat#A8412, Sigma) with constant 0.1% DMSO concentration. 439 μL of sample or vehicle control was added to the cell monolayers. Cells are treated for 1 hour at 37° C. and 5% CO2. 250 ng/mL Recombinant human VEGFC (Cat #2179-VC, R & D Systems) added to wells and plates incubated for an additional 10 minutes at 37° C. and 5% CO2.
The media and compounds were removed and the cell monolayer washed once in Dulbecco's Phosphate Buffered Saline (Cat #21600-044, Invitrogen). 130 μL of Lysis buffer added to wells and cell lysate harvested and transferred to tubes and stored on ice. Complete lysis buffer was prepared by adding 10 μL Protease Inhibitor Cocktail (Cat #P8340, Sigma-Aldrich), 10 μL PMSF (Phenylmethanesulfonyl fluoride, Cat #P7626, Sigma-Aldrich, prepared as 500 mM DMSO stock) per 1 mL of Phosphosafe™ Extraction Reagent (Cat #71296, Merck).
The harvested samples were then diluted 1:2 in IC Diluent #18 (5% Tween 20/PBS) and 100 μL transferred to the Total and Phospho VEGFR3 coated, blocked and washed 96 well plates and incubated for 2 hours at room temperature. The plates were then washed three times in wash buffer as described above and tapped dry.
For detection of Total VEGFR3100 μL of Detection antibody (Total VEGFR3 Detection Antibody Part#841888 in Total VEGFR3 kit) diluted in IC Diluent #1 (1% w/v BSA (Cat #A7906, Sigma-Aldrich)/PBS) was added to wells and the plate incubated for 2 hours at room temperature. The plate was then washed three times in wash buffer and tapped dry. 100 μL of streptavidin-HPR diluted in IC diluent #1 Streptavidin-HRP, Part #890803 in Total VEGFR3 kit) was added to wells and incubated at room temperature for 20 minutes followed by washing as described above 100 μL Substrate solution (3,3′,5,5′-Tetramethylbenzidine (TMB) Liquid Substrate System for ELISA, Cat #T0440, Sigma-Aldrich) was added and the plate incubated for 20 minutes in the dark at room temperature followed by the addition of 50 μL stop solution (2 M H2SO4).
Total VEGFR3 levels were quantified using a Multiskan Ascent plate reader and Ascent software fitted with 450 nm filter.
For detection of Phospho VEGFR3, 100 μL of Detection antibody (Anti-Phospho-Tyrosine-HRP Detection Antibody, Part #841403 in Phospho VEGFR3 kit) was diluted in IC Diluent #1 (1% w/v BSA/PBS), added to the wells and the plate incubated for 2 hours at room temperature. The plate was then washed three times in wash buffer as described above and tapped dry. […]

P397Y-FAK = target: T3, P397Y-FAK (Homo sapiens, UniProt Q05397); assay: P397Y-FAK inhibition MSD platform cellular biomarker assay; type: cell-based; conditions: MDA-231-LNA cells, 1 hour compound
T3 construct: endogenous in cells; host or cells: MDA-231-LNA
T3 sequence (Q05397 2-1052 limits assumed, stated change not applied): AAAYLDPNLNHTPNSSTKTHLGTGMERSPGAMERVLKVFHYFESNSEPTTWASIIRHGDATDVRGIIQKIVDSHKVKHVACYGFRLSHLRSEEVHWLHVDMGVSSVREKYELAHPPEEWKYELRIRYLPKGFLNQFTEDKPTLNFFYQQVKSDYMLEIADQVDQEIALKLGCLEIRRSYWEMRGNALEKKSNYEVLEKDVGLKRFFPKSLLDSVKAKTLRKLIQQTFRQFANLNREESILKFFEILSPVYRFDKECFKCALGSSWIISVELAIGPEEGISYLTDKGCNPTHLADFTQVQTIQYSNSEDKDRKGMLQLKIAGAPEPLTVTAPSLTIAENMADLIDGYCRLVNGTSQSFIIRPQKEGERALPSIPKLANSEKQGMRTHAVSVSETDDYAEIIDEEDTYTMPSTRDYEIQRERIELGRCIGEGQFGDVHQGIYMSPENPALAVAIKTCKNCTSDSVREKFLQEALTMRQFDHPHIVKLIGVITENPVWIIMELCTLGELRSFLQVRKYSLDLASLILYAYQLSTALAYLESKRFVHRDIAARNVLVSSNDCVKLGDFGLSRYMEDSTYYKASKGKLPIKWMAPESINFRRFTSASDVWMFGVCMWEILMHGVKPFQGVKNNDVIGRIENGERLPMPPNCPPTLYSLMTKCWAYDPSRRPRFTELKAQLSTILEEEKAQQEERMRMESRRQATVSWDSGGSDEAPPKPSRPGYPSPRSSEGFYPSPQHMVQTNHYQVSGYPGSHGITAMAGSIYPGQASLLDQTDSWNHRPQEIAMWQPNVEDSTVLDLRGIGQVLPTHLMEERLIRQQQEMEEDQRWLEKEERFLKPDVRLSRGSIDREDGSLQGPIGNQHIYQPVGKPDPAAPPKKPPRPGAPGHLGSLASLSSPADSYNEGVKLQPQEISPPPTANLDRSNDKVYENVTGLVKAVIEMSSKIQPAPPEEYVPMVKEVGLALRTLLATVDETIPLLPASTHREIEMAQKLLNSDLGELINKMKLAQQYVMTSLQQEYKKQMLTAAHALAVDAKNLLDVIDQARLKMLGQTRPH
Experimental: 96-well plates (cat#MA6000, Meso Scale Discovery) are coated with 30 μL/well of mouse monoclonal FAK antibody [63D5] (cat#ab72140, Abcam) pre-diluted in PBS to a concentration of 1 mg/mL. The plates are sealed with adhesive film and incubated for 16 hours at 4° C. The antibody is then flicked out of the plates and 150 μL of 3% [w/v] Blocker A (cat#R93AA-1, Meso Scale Discovery) is added. The plates are resealed with adhesive film and incubated at room temperature on a shaker set at medium speed for 2 hours. The plates are then washed three times with a solution containing 50 mM Tris-HCl pH 7.5, 0.15 M NaCl and 0.02% Tween-20, before cell lysate addition described below.
Cells are split 1:2 into T150 cell culture flasks 2 days prior to compound treatment. On the day prior to compound treatment, 200 μL media containing 20,000 cells is seeded into all wells of white, clear-bottom, TC treated, pclear, 96-well microtitre plates (cat#655098, Greiner Bio-One), and the plates are incubated at 37° C. and 5% CO2 for […]. 1 pUwell of compound is then added from dilution series prepared in DMSO. Negative control wells receive the same volume of DMSO without compounds, and positive control wells receive 2 μM of a control compound in the same volume of DMSO. Cells are treated for 1 hour at 37° C. and 5% CO2. The media/compounds are then flicked off and 55 pUwell of ice-cold complete lysis buffer is added. Complete lysis buffer is prepared by adding 1 tablet PhosSTOP complete phosphatase inhibitor (cat#04906837001, Roche) and 1 tablet Complete, Mini, EDTA-free, protease inhibitor (cat#04693159001, Roche) per 10 mL of incomplete lysis buffer (150 mM NaCl, 20 mM Tris-HCl pH 7.5, 1 mM EDTA, 1 mM EGTA, 1% Triton-X 100). Plates are incubated on ice for 30 minutes, with 30 seconds high speed plate shaking every 5 minutes. 40 μL/well of cell lysate is transferred to the coated, blocked and washed 96-well microtitre plates described above. The 96-well plates are sealed with adhesive film and incubated for 16 hours at 4° C. The plates are then washed three times with a solution containing 50 mM Tris-HCl pH 7.5, 0.15 M NaCl and 0.02% Tween-20 and tapped dry. 25 μL/well of detection solution (1% [w/v] Blocker A (cat#R93AA-1, Meso Scale Discovery) in 50 mM Tris-HCl pH 7.5, 0.15 M NaCl and 0.02% Tween-20, with 1:600 rabbit polyclonal FAK phospho Y397 antibody (cat#ab39967, Abcam), 1:1000 anti-rabbit sulfo-tag antibody (cat#R32AB-1 Meso Scale Discovery) and 1:40 reconstituted Blocker D-M (cat#D609-0100, Rockland Immunochemicals for Research)) is added, and the plates resealed with adhesive film and incubated for 1 hour at room temperature on a plate shaker set to medium speed. Plates are then washed three times with a solution containing 50 mM Tris-HCl pH 7.5, 0.15 M NaCl and 0.02% Tween-20 and tapped dry. 150 μL/well of Read Buffer T+Surfactant (cat#R92TC-1, Meso Scale Discovery) is then added, and pFAK-397 levels quantified using a Meso Scale Discovery SECTOR Imager 6000 instrument.

T1 sequence (P35916 798-1298 isoform P35916-1): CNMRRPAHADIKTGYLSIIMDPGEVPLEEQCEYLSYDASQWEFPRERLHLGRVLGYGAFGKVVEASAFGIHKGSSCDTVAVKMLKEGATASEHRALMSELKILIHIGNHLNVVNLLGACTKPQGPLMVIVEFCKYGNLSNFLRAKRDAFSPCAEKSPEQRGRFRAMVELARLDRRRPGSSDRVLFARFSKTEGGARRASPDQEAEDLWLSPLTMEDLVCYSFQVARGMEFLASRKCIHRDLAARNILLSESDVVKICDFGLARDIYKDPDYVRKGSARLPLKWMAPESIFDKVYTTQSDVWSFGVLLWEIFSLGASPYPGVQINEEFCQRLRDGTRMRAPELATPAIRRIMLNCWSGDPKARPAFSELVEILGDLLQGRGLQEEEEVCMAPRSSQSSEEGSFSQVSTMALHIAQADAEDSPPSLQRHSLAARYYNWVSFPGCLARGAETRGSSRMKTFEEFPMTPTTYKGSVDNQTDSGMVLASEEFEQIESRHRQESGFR

Compound | IC50 [1] [nM] | IC50 (VEGFR3) [nM] | IC50 (P397Y-FAK) [nM]
NC(=O)Cc1cc(F)ccc1CCc1nc(Nc2ccc(C3CCNCC3)cc2)ncc1C(F)(F)F [Compound 9, 2-(5-fluoro-2-(2-(2-((4-(piperidin-4-yl)phenyl)amino)-5-(trifluoromethyl)pyrimidin-4-yl)ethyl)phenyl)acetamide] | 68 | 379 | –
NC(=O)Cc1ccccc1CCc1nc(Nc2ccc(C3CCNCC3)nc2)ncc1C(F)(F)F [Compound 13, 2-(2-(2-(2-((6-(piperidin-4-yl)pyridin-3-yl)amino)-5-(trifluoromethyl)pyrimidin-4-yl)ethyl)phenyl)acetamide] | 67 | 1030 | –
NC(=O)Cc1ccccc1CCc1nc(Nc2ccc(CNCCO)cc2)ncc1C(F)(F)F [Compound 19, 2-(2-(2-(2-((4-(((2-hydroxyethyl)amino)methyl)phenyl)amino)-5-(trifluoromethyl)pyrimidin-4-yl)ethyl)phenyl)acetamide] | 70 | – | 7
Cc1ccc(CC(N)=O)c(CCc2nc(Nc3ccc(C4CCNCC4)cc3)ncc2C(F)(F)F)c1 [Compound 21, 2-(4-methyl-2-(2-(2-((4-(piperidin-4-yl)phenyl)amino)-5-(trifluoromethyl)pyrimidin-4-yl)ethyl)phenyl)acetamide] | 44 | – | 119
NC(=O)Cc1c(CCc2nc(Nc3ccc(C4CCNCC4)cc3)ncc2C(F)(F)F)cccc1C(F)(F)F [Compound 22, 2-(2-(2-(2-((4-(piperidin-4-yl)phenyl)amino)-5-(trifluoromethyl)pyrimidin-4-yl)ethyl)-6-(trifluoromethyl)phenyl)acetamide] | 101 | – | 944
